# Laboratory results taken from patent US8551448B2, “Rotanone analogs: method of preparation and use” (The Regents of the University of California, priority 2006, dated 2013).
# Where two headings read alike, the source gives them in different places.
# What was measured:
# [1] = Biodistribution of iodorotenol and iodorotenone compounds in rats (organs and blood weighed and counted); details: for uptake in the heart relative to the Z isomer: twenty microcuries into tail vein
# Protocol: Evaluation of the iodorotenol and iodorotenone compounds. […] Twenty microcuries of the compound was injected into the rat tail vein. At various time points post injection (30 m, 1 h, 2 h, and 4 h) rats were euthanized and the organs and blood were weighed and counted.
# [2] = Dual head planar whole body imaging in canines; details: dogs; for heart uptake and retention (planar images): 4-6 mCi 123I compound iv in front leg vein, scans to 7 h (FIG. 17); for uptake in the thyroid: no thyroid blocking agent prior to the scan
# Protocol: Two 20-25 kg dogs were anesthetized with iv sodium pentathol and maintained on inhaled isoflurane. Four to six mCi of Z-[^123I]Iodorotenone or E-[^123I]Iodorotenone was injected in a front leg vein. Dual head planar imaging was carried out using the GE Millenium SPECT scanner with Hawkeye xray CT. The scanning protocol was serial 4 m whole body scans over the first hour, 8 m whole body scans from 1-2 h and 30 min whole body scans out to 7 h post injection of the tracer. […] No thyroid blocking agent was introduced prior to the scan.
# [3] = system: isolated blood perfused rabbit heart; details: cited from earlier work
SMILES,uptake in the heart relative to the Z isomer [1],heart uptake and retention (planar images) [2],uptake in the thyroid [2],also measured
"COc1cc2c(cc1OC)C1C(CO2)Oc2c(ccc3c2CC(C(C)=CI)O3)C1O (stereo not drawn) [E-iodorotenol, E-7′-iodorotenol]",two-fold increase,–,–,–
"COc1cc2c(cc1OC)[C@@H]1C(=O)c3ccc4c(c3O[C@@H]1CO2)C[C@H](/C(C)=C/I)O4 [E-iodorotenone, E-7′-iodorotenone]",nearly double,greater heart uptake and retention,minimal,"heart uptake, injected dose in the heart tissue ([1]; tail vein injection, at 1 hour): 6.5 % injected dose; time to which the heart is clearly visible ([2]; planar imaging post injection): 4.5 h"
[C-]#[N+]CC(C)(C)OC.[C-]#[N+]CC(C)(C)OC.[C-]#[N+]CC(C)(C)OC.[C-]#[N+]CC(C)(C)OC.[C-]#[N+]CC(C)(C)OC.[C-]#[N+]CC(C)(C)OC.[Tc] [Tc-99m sestamibi],–,–,–,net heart retention ([3]; at 1 min): 0.41±0.11; net heart retention ([3]; at 26 min): 0.27±0.11; extraction [3]: 0.48±0.10
"COc1cc2c(cc1OC)[C@@H]1C(=O)c3ccc4c(c3O[C@@H]1CO2)C[C@H](/C(C)=C\I)O4 [Z-iodorotenone, Z-7′-iodorotenone]",–,washed out of the heart faster,minimal,"clearance through the gallbladder and stomach ([2]; planar imaging, compared with the E isomer): more rapidly"
